The source made the active and inactive calls. The calls are words filed in the database; no cut-off is given here.

The test system of series [1] is BV-2. In words: Antiinflammatory activity in LPS stimulated mouse BV-2 cells assessed as decrease in IDO1 expression pretreated with compound for 1 hr followed by LPS stimulation and measured after 24 hrs. The conditions noted are these: dose 0.25-2 µM, time 25.0 hrs, DDE = dose-dependent effect. Format: functional, cell-based.
Series [2] deals with BV-2. In words: Antiinflammatory activity in LPS stimulated mouse BV-2 cells assessed as reduction in iNOS expression at 0.5 to 2 uM pretreated with compound for 1 hr followed by LPS stimulation and measured after 24 hrs by qRT-PCR analysis. Format: functional, cell-based. The conditions noted are these: dose 0.5-2 µM, time 25.0 hrs.
For series [3], the system named is BV-2. The series can be described thus: Antiinflammatory activity in LPS stimulated mouse BV-2 cells assessed as reduction in IL-1beta expression at 0.5 to 2 uM pretreated with compound for 1 hr followed by LPS stimulation and measured after 24 hrs by qRT-PCR analysis. Format: functional, cell-based. The conditions noted are these: dose 0.5-2 µM, time 25.0 hrs.

The subject of series [4] is BV-2. In words: Antiinflammatory activity in LPS stimulated mouse BV-2 cells assessed as increase in IL-10 expression at 0.5 to 2 uM pretreated with compound for 1 hr followed by LPS stimulation and measured after 24 hrs by qRT-PCR analysis. Format: functional, cell-based. Particulars: dose 0.5-2 µM, time 25.0 hrs.
Series [5] in a line: Half life in C57BL/6J mouse at 20 mg/kg, iv measured up to 24 hrs by LC-MS/MS analysis. Format: ADME, organism-based. The conditions noted are these: in vivo.
Series [6] can be described thus: MRT (0 to 24 hrs) in C57BL/6J mouse at 20 mg/kg, iv measured up to 24 hrs by LC-MS/MS analysis. Format: ADME, organism-based. Particulars: in vivo.
Series [7] is described as follows: Volume of distribution at steady state in C57BL/6J mouse at 20 mg/kg, iv measured up to 24 hrs by LC-MS/MS analysis. The conditions noted are these: in vivo, read-out: Vdss. Format: ADME, organism-based.
Series [8] concerns Mus musculus. In words: Antiinflammatory activity in LPS induced mouse assessed as reduction in IL-1beta expression in hippocampus at 20 mg/kg, ip pretreated with compound administered once daily for 2 days followed by LPS injection by qPCR analysis. Format: functional, organism-based. Particulars: time 2.0 day.
In series [9] the test system is Mus musculus. In words: Antiinflammatory activity in LPS induced mouse assessed as reduction in iNOS expression in hippocampus at 20 mg/kg, ip pretreated with compound administered once daily for 2 days followed by LPS injection by qPCR analysis. Format: functional, organism-based. The conditions noted are these: time 2.0 day.
Series [10] concerns Mus musculus. The series can be described thus: Antiinflammatory activity in LPS induced mouse assessed as rescue of increase in IDO1 expression in activated microglia at 20 mg/kg, ip pretreated with compound administered once daily for 2 days followed by LPS injection by immunofluorescence analysis. Format: functional, organism-based. The conditions noted are these: time 2.0 day.

Consider `c1ccc2c(c1)[nH]c1c(-c3c[nH]cn3)nccc12`, for which the Activity entry in series [1] was “Dde”. Also, the result in [2], in [3], in series [4], in series [8], in [9] and in series [10] was Active. The half-life in series [5] was 139 min. For the same compound, in series [6], the MRT last at 24 h was found to be 1.81 h. In [7], the Vd worked out at 4.35 L/kg.
